{"source": "BigSolDB 2.1"}
{"smiles": "O=C(O)CNC(=O)OCc1ccccc1", "values": [{"measurement": "solubility (mole fraction)", "setting": "in 2-butanone, 283.15 K", "result": 0.0371}, {"measurement": "solubility (mole fraction)", "setting": "in 2-butanone, 288.15 K", "result": 0.0437}, {"measurement": "solubility (mole fraction)", "setting": "in 2-butanone, 293.15 K", "result": 0.0508}, {"measurement": "solubility (mole fraction)", "setting": "in 2-butanone, 298.15 K", "result": 0.0592}, {"measurement": "solubility (mole fraction)", "setting": "in 2-butanone, 303.15 K", "result": 0.0692}, {"measurement": "solubility (mole fraction)", "setting": "in 2-butanone, 308.15 K", "result": 0.082}, {"measurement": "solubility (mole fraction)", "setting": "in 2-butanone, 313.15 K", "result": 0.0966}, {"measurement": "solubility (mole fraction)", "setting": "in 2-butanone, 318.15 K", "result": 0.114}, {"measurement": "solubility (mole fraction)", "setting": "in 2-butanone, 323.15 K", "result": 0.134}, {"measurement": "solubility (mole fraction)", "setting": "in acetone, 283.15 K", "result": 0.0617}, {"measurement": "solubility (mole fraction)", "setting": "in acetone, 288.15 K", "result": 0.0709}, {"measurement": "solubility (mole fraction)", "setting": "in acetone, 293.15 K", "result": 0.0815}, {"measurement": "solubility (mole fraction)", "setting": "in acetone, 298.15 K", "result": 0.0942}, {"measurement": "solubility (mole fraction)", "setting": "in acetone, 303.15 K", "result": 0.108}, {"measurement": "solubility (mole fraction)", "setting": "in acetone, 308.15 K", "result": 0.123}, {"measurement": "solubility (mole fraction)", "setting": "in acetone, 313.15 K", "result": 0.14}, {"measurement": "solubility (mole fraction)", "setting": "in acetone, 318.15 K", "result": 0.169}, {"measurement": "solubility (mole fraction)", "setting": "in acetone, 323.15 K", "result": 0.197}, {"measurement": "solubility (mole fraction)", "setting": "in acetonitrile, 283.15 K", "result": 0.0106}, {"measurement": "solubility (mole fraction)", "setting": "in acetonitrile, 288.15 K", "result": 0.0132}, {"measurement": "solubility (mole fraction)", "setting": "in acetonitrile, 293.15 K", "result": 0.0159}, {"measurement": "solubility (mole fraction)", "setting": "in acetonitrile, 298.15 K", "result": 0.0198}, {"measurement": "solubility (mole fraction)", "setting": "in acetonitrile, 303.15 K", "result": 0.0251}, {"measurement": "solubility (mole fraction)", "setting": "in acetonitrile, 308.15 K", "result": 0.032}, {"measurement": "solubility (mole fraction)", "setting": "in acetonitrile, 313.15 K", "result": 0.0408}, {"measurement": "solubility (mole fraction)", "setting": "in acetonitrile, 318.15 K", "result": 0.052}, {"measurement": "solubility (mole fraction)", "setting": "in acetonitrile, 323.15 K", "result": 0.067}, {"measurement": "solubility (mole fraction)", "setting": "in ethanol, 283.15 K", "result": 0.0415}, {"measurement": "solubility (mole fraction)", "setting": "in ethanol, 288.15 K", "result": 0.0499}, {"measurement": "solubility (mole fraction)", "setting": "in ethanol, 293.15 K", "result": 0.0611}, {"measurement": "solubility (mole fraction)", "setting": "in ethanol, 298.15 K", "result": 0.0767}, {"measurement": "solubility (mole fraction)", "setting": "in ethanol, 303.15 K", "result": 0.0955}, {"measurement": "solubility (mole fraction)", "setting": "in ethanol, 308.15 K", "result": 0.11}, {"measurement": "solubility (mole fraction)", "setting": "in ethanol, 313.15 K", "result": 0.131}, {"measurement": "solubility (mole fraction)", "setting": "in ethanol, 318.15 K", "result": 0.157}, {"measurement": "solubility (mole fraction)", "setting": "in ethanol, 323.15 K", "result": 0.186}, {"measurement": "solubility (mole fraction)", "setting": "in ethyl acetate, 283.15 K", "result": 0.0185}, {"measurement": "solubility (mole fraction)", "setting": "in ethyl acetate, 288.15 K", "result": 0.0222}, {"measurement": "solubility (mole fraction)", "setting": "in ethyl acetate, 293.15 K", "result": 0.026}, {"measurement": "solubility (mole fraction)", "setting": "in ethyl acetate, 298.15 K", "result": 0.0308}, {"measurement": "solubility (mole fraction)", "setting": "in ethyl acetate, 303.15 K", "result": 0.0369}, {"measurement": "solubility (mole fraction)", "setting": "in ethyl acetate, 308.15 K", "result": 0.0442}, {"measurement": "solubility (mole fraction)", "setting": "in ethyl acetate, 313.15 K", "result": 0.053}, {"measurement": "solubility (mole fraction)", "setting": "in ethyl acetate, 318.15 K", "result": 0.0642}, {"measurement": "solubility (mole fraction)", "setting": "in ethyl acetate, 323.15 K", "result": 0.0783}, {"measurement": "solubility (mole fraction)", "setting": "in isobutanol, 283.15 K", "result": 0.0149}, {"measurement": "solubility (mole fraction)", "setting": "in isobutanol, 288.15 K", "result": 0.0188}, {"measurement": "solubility (mole fraction)", "setting": "in isobutanol, 293.15 K", "result": 0.0237}, {"measurement": "solubility (mole fraction)", "setting": "in isobutanol, 298.15 K", "result": 0.0315}, {"measurement": "solubility (mole fraction)", "setting": "in isobutanol, 303.15 K", "result": 0.0394}, {"measurement": "solubility (mole fraction)", "setting": "in isobutanol, 308.15 K", "result": 0.0523}, {"measurement": "solubility (mole fraction)", "setting": "in isobutanol, 313.15 K", "result": 0.0665}, {"measurement": "solubility (mole fraction)", "setting": "in isobutanol, 318.15 K", "result": 0.0853}, {"measurement": "solubility (mole fraction)", "setting": "in isobutanol, 323.15 K", "result": 0.109}, {"measurement": "solubility (mole fraction)", "setting": "in isopropanol, 283.15 K", "result": 0.0261}, {"measurement": "solubility (mole fraction)", "setting": "in isopropanol, 288.15 K", "result": 0.0338}, {"measurement": "solubility (mole fraction)", "setting": "in isopropanol, 293.15 K", "result": 0.0449}, {"measurement": "solubility (mole fraction)", "setting": "in isopropanol, 298.15 K", "result": 0.0566}, {"measurement": "solubility (mole fraction)", "setting": "in isopropanol, 303.15 K", "result": 0.0707}, {"measurement": "solubility (mole fraction)", "setting": "in isopropanol, 308.15 K", "result": 0.0864}, {"measurement": "solubility (mole fraction)", "setting": "in isopropanol, 313.15 K", "result": 0.108}, {"measurement": "solubility (mole fraction)", "setting": "in isopropanol, 318.15 K", "result": 0.133}, {"measurement": "solubility (mole fraction)", "setting": "in isopropanol, 323.15 K", "result": 0.16}, {"measurement": "solubility (mole fraction)", "setting": "in methanol, 283.15 K", "result": 0.0654}, {"measurement": "solubility (mole fraction)", "setting": "in methanol, 288.15 K", "result": 0.0769}, {"measurement": "solubility (mole fraction)", "setting": "in methanol, 293.15 K", "result": 0.0933}, {"measurement": "solubility (mole fraction)", "setting": "in methanol, 298.15 K", "result": 0.109}, {"measurement": "solubility (mole fraction)", "setting": "in methanol, 303.15 K", "result": 0.123}, {"measurement": "solubility (mole fraction)", "setting": "in methanol, 308.15 K", "result": 0.143}, {"measurement": "solubility (mole fraction)", "setting": "in methanol, 313.15 K", "result": 0.164}, {"measurement": "solubility (mole fraction)", "setting": "in methanol, 318.15 K", "result": 0.19}, {"measurement": "solubility (mole fraction)", "setting": "in methanol, 323.15 K", "result": 0.219}, {"measurement": "solubility (mole fraction)", "setting": "in methyl acetate, 283.15 K", "result": 0.0261}, {"measurement": "solubility (mole fraction)", "setting": "in methyl acetate, 288.15 K", "result": 0.0309}, {"measurement": "solubility (mole fraction)", "setting": "in methyl acetate, 293.15 K", "result": 0.0366}, {"measurement": "solubility (mole fraction)", "setting": "in methyl acetate, 298.15 K", "result": 0.0436}, {"measurement": "solubility (mole fraction)", "setting": "in methyl acetate, 303.15 K", "result": 0.053}, {"measurement": "solubility (mole fraction)", "setting": "in methyl acetate, 308.15 K", "result": 0.0627}, {"measurement": "solubility (mole fraction)", "setting": "in methyl acetate, 313.15 K", "result": 0.0737}, {"measurement": "solubility (mole fraction)", "setting": "in methyl acetate, 318.15 K", "result": 0.0902}, {"measurement": "solubility (mole fraction)", "setting": "in methyl acetate, 323.15 K", "result": 0.105}, {"measurement": "solubility (mole fraction)", "setting": "in n-butanol, 283.15 K", "result": 0.0205}, {"measurement": "solubility (mole fraction)", "setting": "in n-butanol, 288.15 K", "result": 0.0257}, {"measurement": "solubility (mole fraction)", "setting": "in n-butanol, 293.15 K", "result": 0.032}, {"measurement": "solubility (mole fraction)", "setting": "in n-butanol, 298.15 K", "result": 0.04}, {"measurement": "solubility (mole fraction)", "setting": "in n-butanol, 303.15 K", "result": 0.0504}, {"measurement": "solubility (mole fraction)", "setting": "in n-butanol, 308.15 K", "result": 0.0627}, {"measurement": "solubility (mole fraction)", "setting": "in n-butanol, 313.15 K", "result": 0.0786}, {"measurement": "solubility (mole fraction)", "setting": "in n-butanol, 318.15 K", "result": 0.0982}, {"measurement": "solubility (mole fraction)", "setting": "in n-butanol, 323.15 K", "result": 0.122}, {"measurement": "solubility (mole fraction)", "setting": "in n-pentanol, 283.15 K", "result": 0.018}, {"measurement": "solubility (mole fraction)", "setting": "in n-pentanol, 288.15 K", "result": 0.0221}, {"measurement": "solubility (mole fraction)", "setting": "in n-pentanol, 293.15 K", "result": 0.0275}, {"measurement": "solubility (mole fraction)", "setting": "in n-pentanol, 298.15 K", "result": 0.0349}, {"measurement": "solubility (mole fraction)", "setting": "in n-pentanol, 303.15 K", "result": 0.0429}, {"measurement": "solubility (mole fraction)", "setting": "in n-pentanol, 308.15 K", "result": 0.0578}, {"measurement": "solubility (mole fraction)", "setting": "in n-pentanol, 313.15 K", "result": 0.0727}, {"measurement": "solubility (mole fraction)", "setting": "in n-pentanol, 318.15 K", "result": 0.0886}, {"measurement": "solubility (mole fraction)", "setting": "in n-pentanol, 323.15 K", "result": 0.111}, {"measurement": "solubility (mole fraction)", "setting": "in n-propanol, 283.15 K", "result": 0.0261}, {"measurement": "solubility (mole fraction)", "setting": "in n-propanol, 288.15 K", "result": 0.0327}, {"measurement": "solubility (mole fraction)", "setting": "in n-propanol, 293.15 K", "result": 0.0399}, {"measurement": "solubility (mole fraction)", "setting": "in n-propanol, 298.15 K", "result": 0.0504}, {"measurement": "solubility (mole fraction)", "setting": "in n-propanol, 303.15 K", "result": 0.0636}, {"measurement": "solubility (mole fraction)", "setting": "in n-propanol, 308.15 K", "result": 0.0794}, {"measurement": "solubility (mole fraction)", "setting": "in n-propanol, 313.15 K", "result": 0.0986}, {"measurement": "solubility (mole fraction)", "setting": "in n-propanol, 318.15 K", "result": 0.122}, {"measurement": "solubility (mole fraction)", "setting": "in n-propanol, 323.15 K", "result": 0.149}]}
